In patent US9695174B2, “Inhibitor of breast cancer resistance protein (BCRP)” (Millennium Pharmaceuticals, Inc., priority 2013, dated 2017):
Where two headings read alike, the source gives them in different places. Blank lines part the entries; values can stand above or below the compound they belong to.

How the values were obtained:
BCRP efflux transporter = BCRP efflux transporter (Homo sapiens (Human), UniProt Q9UNQ0); assay: Bi-directional transport study in Caco-2 cells, inhibition of BCRP efflux of 3H-estrone-3-sulfate
Description: To determine potency of compounds on inhibition of transporters, bi-directional transport studies are performed in Caco-2 cells (American Type Culture Collection, Manassas, Va.) at 37° C. in air, according toXia et al. (Expression, localization and functional characteristics of breast cancer resistance protein in Caco-2 cells. Drug Met. Disp., 33 (5): 637-643 (2005)). Prior to each experiment, the confluent cell monolayers on Transwell™ inserts are washed and equilibrated for 30 minutes with transport media (Hank's balanced salt solution (HBSS) containing 10 mM of N-2-hydroxyethyl-piperazine-N′-2-ethanesulfonic acid (HEPES) and 10 mM of glucose, pH 7.4). […] At preset time points, 0.05 mL aliquot of receiving solutions are sampled from the basolateral side (for A-to-B transport) or from the apical side (for B-to-A transport), and replaced immediately with an equal amount of fresh transport media except at the last time point (the end of the incubation). The radioactivity in each sample is measured by 1450 MicroBeta TriLux, a microplate scintillation and luminescence counter (PerkinElmer Life Sciences). Radioactivity (^3H) of the dosing solution is measured and used to calculate the initial donor concentration of the substrate.

CYP2C19 = CYP2C19 (Homo sapiens (Human), UniProt P33261); assay: CYP inhibition in human liver microsomes (S-mephenytoin); assay type: in vitro ADME; details: read-out: CYP inhibition IC50 2C19
Description: (§1) Reactions are initiated by the addition of β-NADPH (2 mM) and MgCl2 (3 mM) in 0.1-M potassium phosphate buffer, pH 7.4. Reactions are incubated for 12 minutes at 37° C., and then terminated by the addition of an equal volume of ACN containing 1-μM carbutamide (IS). The plates are refrigerated at approximately 4° C. for 15 minutes and then centrifuged in order to pellet the precipitated proteins. The supernatants are analyzed by LC/MS/MS for the amount of metabolite formed by each CYP isozyme.

CYP2C8 = CYP2C8 (Homo sapiens (Human), UniProt P10632); assay: CYP inhibition in human liver microsomes (amodiaquine); assay type: in vitro ADME; details: read-out: CYP inhibition IC50 2C8
Description: as §1

CYP1A2 = CYP1A2 (Homo sapiens (Human), UniProt P05177); assay: CYP inhibition in human liver microsomes (phenacetin); assay type: in vitro ADME; details: read-out: CYP inhibition IC50 1A2
Description: as §1

CYP3A4/5 = assay: CYP inhibition in human liver microsomes (midazolam); assay type: in vitro ADME; details: midazolam substrate, read-out: CYP inhibition IC50 3A-M
Description: as §1

CYP2D6 = CYP2D6 (Homo sapiens (Human), UniProt P10635); assay: CYP inhibition in human liver microsomes (dextromethorphan); assay type: in vitro ADME; details: read-out: CYP inhibition IC50 2D6
Description: as §1

[1] = In vivo pharmacokinetic profile in Sprague-Dawley rats
Description: Approximately 200 μL of whole blood is collected from the jugular vein catheter of each animal into tubes containing the anticoagulant dipotassium ethylenediaminetetraacetic acid (K2EDTA) and is further processed into plasma at approximately 4° C. […] Pharmacokinetic analysis of the individual plasma concentration data is performed using a nonvalidated program (Phoenix™ WinNonlin®, Version 6.1 [Pharsight Corp (Mountain View, Calif., USA)]).

P-gp transporter = P-gp transporter (Homo sapiens (Human), UniProt P08183); assay: Bi-directional transport study in Caco-2 cells, inhibition of P-gp efflux of 3H-digoxin; assay type: cell-based
CYP2C9 = CYP2C9 (Homo sapiens (Human), UniProt P11712); assay: CYP inhibition in human liver microsomes (diclofenac); assay type: in vitro ADME; details: read-out: CYP inhibition IC50 2C9
Description: as §1

[2] = read-out: IC50 on BCRP efflux transporter, Caco-2 cells, substrate 3H-Estrone-3-sulfate (26 nM)
[3] = Sprague-Dawley, rat, plasma, IV-JVC, 2 mg/kg
[4] = Sprague-Dawley, rat, plasma, PO-JVC, 20 mg/kg

Sequence of BCRP efflux transporter (Q9UNQ0 whole entry): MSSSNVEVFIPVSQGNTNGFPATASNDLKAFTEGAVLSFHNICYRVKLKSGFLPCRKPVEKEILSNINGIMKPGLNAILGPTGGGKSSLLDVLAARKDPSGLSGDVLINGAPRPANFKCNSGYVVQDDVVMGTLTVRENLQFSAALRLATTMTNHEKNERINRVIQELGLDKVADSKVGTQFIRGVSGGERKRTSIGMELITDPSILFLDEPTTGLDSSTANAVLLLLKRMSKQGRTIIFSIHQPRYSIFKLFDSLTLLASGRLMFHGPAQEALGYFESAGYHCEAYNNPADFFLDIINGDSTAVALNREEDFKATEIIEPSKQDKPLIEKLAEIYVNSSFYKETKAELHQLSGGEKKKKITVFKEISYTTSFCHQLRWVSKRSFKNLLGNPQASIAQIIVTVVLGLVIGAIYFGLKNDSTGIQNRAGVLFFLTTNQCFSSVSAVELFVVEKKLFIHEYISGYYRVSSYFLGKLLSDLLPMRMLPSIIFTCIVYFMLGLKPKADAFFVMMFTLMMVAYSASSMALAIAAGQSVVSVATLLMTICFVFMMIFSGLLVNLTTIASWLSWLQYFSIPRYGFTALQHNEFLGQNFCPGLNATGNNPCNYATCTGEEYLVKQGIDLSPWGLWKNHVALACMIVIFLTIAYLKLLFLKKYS
Sequence of CYP2C8 (P10632 whole entry): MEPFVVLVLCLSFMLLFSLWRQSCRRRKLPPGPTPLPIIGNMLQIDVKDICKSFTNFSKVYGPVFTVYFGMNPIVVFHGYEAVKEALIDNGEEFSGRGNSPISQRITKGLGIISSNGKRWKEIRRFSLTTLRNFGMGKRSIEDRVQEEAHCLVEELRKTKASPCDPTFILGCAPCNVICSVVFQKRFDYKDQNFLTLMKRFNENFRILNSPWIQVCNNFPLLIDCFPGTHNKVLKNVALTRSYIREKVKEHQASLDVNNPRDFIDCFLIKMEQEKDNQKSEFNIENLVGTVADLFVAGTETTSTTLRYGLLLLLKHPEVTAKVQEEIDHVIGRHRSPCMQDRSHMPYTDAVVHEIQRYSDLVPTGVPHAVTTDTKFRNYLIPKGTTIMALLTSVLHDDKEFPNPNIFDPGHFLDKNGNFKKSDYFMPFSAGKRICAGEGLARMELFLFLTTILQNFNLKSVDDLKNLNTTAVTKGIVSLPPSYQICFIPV
Sequence of CYP1A2 (P05177 whole entry): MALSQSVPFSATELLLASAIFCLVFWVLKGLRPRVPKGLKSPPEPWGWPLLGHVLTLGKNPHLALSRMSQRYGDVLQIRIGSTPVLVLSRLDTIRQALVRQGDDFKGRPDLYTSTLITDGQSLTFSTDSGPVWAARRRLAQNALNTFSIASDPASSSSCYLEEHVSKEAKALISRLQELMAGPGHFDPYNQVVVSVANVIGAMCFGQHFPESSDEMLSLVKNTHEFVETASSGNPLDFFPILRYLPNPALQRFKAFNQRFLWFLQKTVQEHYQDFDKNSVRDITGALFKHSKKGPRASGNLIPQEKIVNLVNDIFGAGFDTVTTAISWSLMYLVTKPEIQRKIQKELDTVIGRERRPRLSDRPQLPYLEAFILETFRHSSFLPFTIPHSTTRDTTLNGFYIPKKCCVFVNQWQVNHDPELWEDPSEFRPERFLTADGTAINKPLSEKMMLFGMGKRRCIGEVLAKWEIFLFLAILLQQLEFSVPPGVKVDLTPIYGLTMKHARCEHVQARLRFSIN
Sequence of CYP2D6 (P10635 whole entry): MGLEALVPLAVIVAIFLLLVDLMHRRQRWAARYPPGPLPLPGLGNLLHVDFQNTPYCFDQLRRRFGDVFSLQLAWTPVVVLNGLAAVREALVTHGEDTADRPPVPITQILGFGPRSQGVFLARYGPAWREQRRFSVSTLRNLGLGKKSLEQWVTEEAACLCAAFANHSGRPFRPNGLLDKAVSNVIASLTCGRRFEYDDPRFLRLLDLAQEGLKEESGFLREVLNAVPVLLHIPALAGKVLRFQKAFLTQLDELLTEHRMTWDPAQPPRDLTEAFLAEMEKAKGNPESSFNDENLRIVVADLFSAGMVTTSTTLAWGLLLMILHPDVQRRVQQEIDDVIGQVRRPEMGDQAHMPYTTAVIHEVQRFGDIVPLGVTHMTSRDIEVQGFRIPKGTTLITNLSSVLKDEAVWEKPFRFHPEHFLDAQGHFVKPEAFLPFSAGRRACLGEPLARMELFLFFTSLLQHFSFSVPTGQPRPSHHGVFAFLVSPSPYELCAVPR
Sequence of CYP2C19 (P33261 whole entry): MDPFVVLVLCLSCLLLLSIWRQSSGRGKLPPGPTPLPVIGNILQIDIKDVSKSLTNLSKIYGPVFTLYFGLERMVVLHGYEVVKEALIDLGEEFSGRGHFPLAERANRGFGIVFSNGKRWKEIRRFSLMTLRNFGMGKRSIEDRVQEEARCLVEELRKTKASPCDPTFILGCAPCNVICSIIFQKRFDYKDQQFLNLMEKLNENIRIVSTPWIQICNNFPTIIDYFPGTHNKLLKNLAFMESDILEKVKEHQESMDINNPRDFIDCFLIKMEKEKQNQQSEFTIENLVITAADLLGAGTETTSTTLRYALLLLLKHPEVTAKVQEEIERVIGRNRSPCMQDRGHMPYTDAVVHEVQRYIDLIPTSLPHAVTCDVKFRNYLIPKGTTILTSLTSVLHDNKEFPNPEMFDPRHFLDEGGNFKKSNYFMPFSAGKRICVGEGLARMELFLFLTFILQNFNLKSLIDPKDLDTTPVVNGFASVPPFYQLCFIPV
Sequence of P-gp transporter (P08183 whole entry): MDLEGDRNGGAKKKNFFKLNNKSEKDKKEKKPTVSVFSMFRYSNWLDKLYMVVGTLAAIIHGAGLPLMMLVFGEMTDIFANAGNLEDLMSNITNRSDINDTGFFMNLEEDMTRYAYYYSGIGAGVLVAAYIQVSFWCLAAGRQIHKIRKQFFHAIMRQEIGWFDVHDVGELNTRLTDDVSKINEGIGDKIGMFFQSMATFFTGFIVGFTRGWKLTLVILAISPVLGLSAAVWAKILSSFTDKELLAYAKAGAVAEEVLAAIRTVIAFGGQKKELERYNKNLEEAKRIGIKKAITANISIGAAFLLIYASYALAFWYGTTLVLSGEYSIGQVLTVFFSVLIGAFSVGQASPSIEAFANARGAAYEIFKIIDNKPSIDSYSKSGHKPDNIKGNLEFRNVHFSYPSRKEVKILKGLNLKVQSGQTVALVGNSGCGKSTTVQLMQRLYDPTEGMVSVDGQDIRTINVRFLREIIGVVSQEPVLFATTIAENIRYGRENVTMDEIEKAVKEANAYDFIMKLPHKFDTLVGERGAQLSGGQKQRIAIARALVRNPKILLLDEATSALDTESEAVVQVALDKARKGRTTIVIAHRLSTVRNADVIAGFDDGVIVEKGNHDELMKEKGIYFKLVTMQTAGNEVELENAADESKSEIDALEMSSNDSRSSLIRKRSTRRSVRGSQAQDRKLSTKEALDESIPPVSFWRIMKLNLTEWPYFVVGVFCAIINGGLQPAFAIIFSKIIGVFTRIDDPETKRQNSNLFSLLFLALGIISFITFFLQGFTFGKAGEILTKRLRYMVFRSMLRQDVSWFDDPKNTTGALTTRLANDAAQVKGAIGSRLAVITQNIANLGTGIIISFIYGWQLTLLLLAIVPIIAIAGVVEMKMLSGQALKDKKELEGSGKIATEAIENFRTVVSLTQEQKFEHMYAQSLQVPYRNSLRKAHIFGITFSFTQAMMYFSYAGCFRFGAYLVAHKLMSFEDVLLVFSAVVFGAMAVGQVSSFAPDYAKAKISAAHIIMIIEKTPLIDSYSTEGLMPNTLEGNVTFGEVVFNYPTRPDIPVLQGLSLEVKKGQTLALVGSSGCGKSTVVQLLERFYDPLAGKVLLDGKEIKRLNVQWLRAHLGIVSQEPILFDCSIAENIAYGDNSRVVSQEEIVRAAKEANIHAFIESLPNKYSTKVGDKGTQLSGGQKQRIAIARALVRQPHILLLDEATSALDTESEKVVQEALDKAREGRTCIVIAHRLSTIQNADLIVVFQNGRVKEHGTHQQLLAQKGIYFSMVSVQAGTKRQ
Sequence of CYP2C9 (P11712 whole entry): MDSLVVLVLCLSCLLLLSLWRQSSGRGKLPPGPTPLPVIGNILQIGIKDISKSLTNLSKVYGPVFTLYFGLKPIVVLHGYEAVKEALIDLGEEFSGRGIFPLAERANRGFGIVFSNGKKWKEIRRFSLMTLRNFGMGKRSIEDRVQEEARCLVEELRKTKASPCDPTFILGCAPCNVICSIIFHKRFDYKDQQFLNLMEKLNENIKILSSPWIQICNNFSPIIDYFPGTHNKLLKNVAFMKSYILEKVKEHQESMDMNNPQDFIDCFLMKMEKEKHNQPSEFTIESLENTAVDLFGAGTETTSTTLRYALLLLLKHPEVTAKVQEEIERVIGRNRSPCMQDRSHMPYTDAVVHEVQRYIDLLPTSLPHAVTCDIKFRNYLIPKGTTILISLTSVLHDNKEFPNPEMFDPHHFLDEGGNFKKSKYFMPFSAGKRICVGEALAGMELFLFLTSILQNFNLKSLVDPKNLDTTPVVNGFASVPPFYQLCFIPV

- IC50 (BCRP efflux transporter; [2]): > 10 µM
SMILES: COc1ccc2c3c([nH]c2c1)[C@H](CC(C)C)N1C(=O)[C@H](C)NC(=O)[C@H]1C3 [Compound 4, (3S,6S,12aR)-6-isobutyl-9-methoxy-3-methyl-2,3,6,7,12,12a-hexahydropyrazino[1′,2′:1,6]pyrido[3,4-b]indole-1,4-dione]

SMILES: COc1cc2[nH]c3c(c2cc1OC)C[C@H]1C(=O)N[C@@H](C)C(=O)N1[C@H]3CC(C)C [Compound 8, (3S,6S,12aS)-6-isobutyl-9,10-dimethoxy-3-methyl-2,3,6,7,12,12a-hexahydropyrazino[1′,2′:1,6]pyrido[3,4-b]indole-1,4-dione]
- IC50 (BCRP efflux transporter; [2]): > 10 µM

SMILES: COc1cc2[nH]c3c(c2cc1OC)C[C@@H]1C(=O)N[C@@H](C)C(=O)N1[C@H]3CC(C)C [Compound 8A, (3S,6S,12aR)-6-isobutyl-9,10-dimethoxy-3-methyl-2,3,6,7,12,12a-hexahydropyrazino[1′,2′:1,6]pyrido[3,4-b]indole-1,4-dione]
- IC50 (BCRP efflux transporter): > 10 µM

- IC50 (BCRP efflux transporter; [2]): 1.98 µM
SMILES: COc1cc2[nH]c3c(c2cc1C)C[C@H]1C(=O)N[C@@H](C)C(=O)N1[C@H]3CC(C)C [Compound 12, (3S,6S,12aS)-6-isobutyl-9-methoxy-3,10-dimethyl-2,3,6,7,12,12a-hexahydropyrazino[1′,2′:1,6]pyrido[3,4-b]indole-1,4-dione]

- IC50 (BCRP efflux transporter; [2]): > 10 µM
SMILES: COc1cc2[nH]c3c(c2cc1C)C[C@@H]1C(=O)N[C@@H](C)C(=O)N1[C@H]3CC(C)C [Compound 12A, (3S,6S,12aR)-6-isobutyl-9-methoxy-3,10-dimethyl-2,3,6,7,12,12a-hexahydropyrazino[1′,2′:1,6]pyrido[3,4-b]indole-1,4-dione]

- IC50 (CYP2C19): 18.5 µM
- IC50 (CYP2C8): > 30 µM
- IC50 (BCRP efflux transporter; [2]): 0.6 µM
- IC50 (CYP1A2): 15.4 µM
- IC50 at 12 min (CYP3A4/5; pH 7.4, probe midazolam): > 30 µM
- IC50 (CYP2D6): > 30 µM
- Bioavailability (in words) [1]: high bioavailability
- Clearance (in words) [1]: low clearance
- CL ([1]; IV-JVC, 2 mg/kg): 25.7 mL/min/kg
- Vss ([1]; IV-JVC, 2 mg/kg): 1.64 L/kg
- Tmax ([1]; PO-JVC, 20 mg/kg): 1.3 h
- AUC [1, 3]: 4 µM·h
- half-life [1, 3]: 0.9 h
- AUC [1, 4]: 49 µM·h
- Cmax [1, 4]: 10.1 µM
- bioavailability [1, 4]: 123%
- half-life [1, 4]: 2 h
- IC50 (P-gp transporter; Caco-2 cells, substrate 3H-digoxin): > 30 µM
- Selectivity for BCRP over P-gp (P-gp transporter; conclusion from Table 2): selective BCRP inhibitor
- IC50 (CYP2C9): > 30 µM
SMILES: COc1ccc2c3c([nH]c2c1)[C@H](CC(C)C)N1C(=O)[C@H](C)NC(=O)[C@@H]1C3 [Compound (I-1), (3S,6S,12aS)-6-isobutyl-9-methoxy-3-methyl-2,3,6,7,12,12a-hexahydropyrazino[1′,2′:1,6]pyrido[3,4-b]indole-1,4-dione]

SMILES: CC(C)C[C@H]1c2[nH]c3ccccc3c2C[C@H]2C(=O)N[C@@H](CCC(=O)OC(C)(C)C)C(=O)N21 [Ko134, reference compound]
- IC50 (BCRP efflux transporter): 3.25 µM

SMILES: COc1ccc2c3c([nH]c2c1)[C@H](CC(C)C)N1C(=O)[C@H](CCC(=O)OC(C)(C)C)NC(=O)[C@@H]1C3 [Ko143, reference compound]
- IC50 (CYP2C19): 14.7 µM
- IC50 (CYP2C8): > 30 µM
- IC50 (CYP1A2): 17.5 µM
- IC50 (CYP3A4/5): > 30 µM
- IC50 (CYP2D6): > 30 µM
- AUC0-24 hr ([1]; IV-JVC, 2 mg/kg): 0.0856 µM·h
- CL ([1]; IV-JVC, 2 mg/kg): 1100 mL/min/kg
- T1/2 ([1]; IV-JVC, 2 mg/kg): 0.2 h
- Vss ([1]; IV-JVC, 2 mg/kg): 14.8 L/kg
- AUC0-24 hr ([1]; PO-JVC, 50 mg/kg): 0.0722 µM·h
- Cmax ([1]; PO-JVC, 50 mg/kg): 0.0214 µM
- F % ([1]; PO-JVC, 50 mg/kg): 3%
- Tmax ([1]; PO-JVC, 50 mg/kg): 2 h
- IC50 (CYP2C9): 6 µM
